Measurements as given in article PMC12785453, “Oral Fluid Concentrations and Pharmacological Effects of Clephedrone and Methylone in Humans” (International Journal of Molecular Sciences, 2025).

Tests used:
[1] = Oral fluid concentrations of clephedrone (GC-MS/MS); format: in vivo, humans; conditions: both sexes, human, 100 or 150 mg oral
Experimental: This study consisted of one experimental session in which participants (N = 8; 6 women, 2 men) selected their oral dose of clephedrone based on their drug use experience and preferences. According to their dose selection, 3 women and 1 man ingested 100 mg of clephedrone, while the remaining 3 women and 1 man opted for a higher dose of 150 mg. […] Participants were recruited by word of mouth by the harm reduction organization Energy Control in Barcelona (Associació Benestar i Desenvolupament, ABD).
In both studies, oral fluid samples for the quantification of clephedrone and methylone concentration were collected using Salivette standard tubes. For clephedrone, oral fluid samples were collected at baseline, 0.50, 1, 1.5, 2, 3, 4, and 5 h, whereas for methylone, they were collected at baseline, 0.25, 0.50, 0.75, 1, 1.5, 2, 3, 4, 6, 8, and 10 h. After collection, all samples were centrifuged and stored frozen at −20 °C until analysis. Clephedrone oral fluid concentrations were determined using a previously validated gas chromatography coupled to mass spectrometry systems (GC-MS/MS). Methylone was quantified via liquid chromatography–tandem mass spectrometry (LC–MS/MS).
For oral fluid concentrations of clephedrone and methylone, only a descriptive analysis was performed to obtain the main pharmacokinetics data, including the maximum concentration (Cmax), the time required to reach maximum concentrations (Tmax), and AUC up to 5 h (AUC0–5h) for clephedrone and up to 6 h (AUC0–6h) for methylone. These parameters were calculated using the Pharmacokinetic Functions for Microsoft Excel (Joel Usansky, Atul Desai, and Diane Tang-Liu, Department of Pharmacokinetics and Drug Metabolism, Allergan, Irvine, CA, USA). Oral cortisol concentrations after clephedrone were analyzed using Dunnett’s multiple comparison test (each time point with baseline).

[2] = tested on: healthy male participants; assay: Subjective effects, VESSPA-SSE, methylone trial; format: in vivo, humans; conditions: 150 or 200 mg oral
Experimental: Methylone pharmacology was evaluated in a study designed as a randomized, double-blind, placebo-controlled, crossover clinical trial. Four pilot studies were conducted administering methylone at oral doses of 50 (n = 3), 100 (n = 6), 150 (n = 5), and 200 mg (n = 7). Participants attended 3 experimental sessions separated by a one-week wash-out period and received two doses of methylone (one dose per experimental session) compared to placebo, except in the last pilot study in which participants received one dose of methylone, compared to MDMA and placebo. However, in this manuscript, only the results corresponding to the highest methylone doses (n = 12; 150 and 200 mg; mean dose = 179.2 mg) are presented, to enable comparison with clephedrone self-administration. Participants were recruited by word of mouth in the volunteer database of the clinical pharmacology unit.
Methylone hydrochloride of high purity in powder form was acquired from LGC Standards (Teddington, UK) for the controlled study. The Pharmacy Department of the Hospital Universitari Germans Trias i Pujol was responsible for manufacturing, storing, and dispensing identical and opaque soft gelatin capsules containing 50 mg of methylone or a placebo (maltodextrin). Treatment consisted of 5 capsules that combined methylone and/or a placebo to reach the target dose. Details can be found in the previous article.
Subjective effects were evaluated with visual analog scales (VAS), the short form of the Addiction Research Center Inventory (ARCI), and the Evaluation of Subjective Effects of Substances with Abuse Potential questionnaire (VESSPA-SSE). In addition, the Sensitivity to Drug Reinforcement Questionnaire (SDRQ) and a pharmacological identification class questionnaire were used in the controlled study administering methylone.
The VESSPA-SSE questionnaire, used to evaluate the subjective effects of stimulant drugs, The questionnaire includes 36-items and consists of six subscales that measure sedation (S), psychosomatic anxiety (ANX), changes in perception (CP), pleasure and sociability (SOC), activity and energy (ACT), and psychotic symptoms (PS).
Participants included in the naturalistic clephedrone study completed VAS at baseline, 0.50, 1, 1.5, 2, 3, 4, and 5 h, and ARCI and VESSPA at baseline, 1, 2, 3, 4, and 5 h after self-administering clephedrone. In the controlled study, VAS was performed at baseline and 0.25, 0.50, 0.75, 1, 1.5, 2, 3, 4, 6, 8, 10, and 24 h, and ARCI and VESSPA at baseline and 1, 2, 3, 4, 6, 8, and 10 h after administering methylone. Participants completed SDRQ and VAS sexual desire and arousal at baseline, 1 and 10 h, and the pharmacological class identification questionnaire at 8 h.
For statistical analysis, values of physiological (SBP, DBP, HR, and T) and subjective effects (VAS, ARCI, and VESSPA-SSE) were baseline–adjusted. Maximum effects (Emax) and the time needed to reach maximum effects (Tmax) were determined, and the area under the curve up to 5 h (AUC0–5h) for clephedrone and up to 6 h (AUC0–6h) for methylone was calculated using the trapezoidal rule. Emax and AUC values are presented as mean ± standard deviation, whereas Tmax is presented in median (range).
To find possible significant changes through the time course compared to baseline, a Dunnett multiple comparison test was carried out to compare each time point with baseline in both drug conditions. For clephedrone the comparisons were 0–0.5 h, 0–1 h, 0–1.5 h, 0–2 h, 0–3 h, 0–4 h and 0–5 h, and for methylone this analysis included 0–0.25 h, 0–0.5 h, 0–0.75 h, 0–1 h, 0–1.5 h, 0–2 h, 0–3 h, 0–4 h and 0–6 h. Given their different study designs, no comparative analysis between the time courses of both synthetic cathinones was conducted.

Compound	Cmax ([1]; n=8) [ng/mL]	Tmax ([1]; n=8) [h]	AUC(0-t) ([1]; n=8, read-out: Oral fluid AUC0–5 h) [ng·h/mL]	Tmax of VESSPA subscales [2] [h]	VESSPA ANX (psychosomatic anxiety) Emax ([2]; n=12) [points]	VESSPA CP (changes in perception) Emax ([2]; n=12) [points]	VESSPA CP (changes in perception) Tmax ([2]; n=12)	VESSPA S (sedation) Emax ([2]; n=12) [points]	VESSPA SOC (pleasure and sociability) Emax ([2]; n=12) [points]	VESSPA-ACT (activity and energy) Emax ([2]; n=12) [points]	VESSPA-PS (psychotic symptoms) Emax ([2]; n=12) [points]	VESSPA SOC (pleasure and sociability) Emax ([2]; n=12, listed as methylone)	VESSPA ANX (psychosomatic anxiety) AUC0-5/6 h ([2]; AUC0–6h, n=12) [points·h]	VESSPA CP (changes in perception) AUC0-5/6 h ([2]; AUC0–6h, n=12) [points·h]	VESSPA S (sedation) AUC0-5/6 h ([2]; AUC0–6h, n=12) [points·h]	VESSPA SOC (pleasure and sociability) AUC0-5/6 h ([2]; AUC0–6h, n=12) [points·h]	VESSPA-ACT (activity and energy) AUC0-5/6 h ([2]; AUC0–6h, n=12) [points·h]	VESSPA-PS (psychotic symptoms) AUC0-5/6 h ([2]; AUC0–6h, n=12) [points·h]
CNC(C)C(=O)c1ccc(Cl)cc1 (stereo not drawn) [Clephedrone, 4-chloromethcathinone]	6410 ± 3490	3	10700															
CNC(C)C(=O)c1ccc2c(c1)OCO2 (stereo not drawn) [Methylone, 3,4-methylenedioxy-N-methylcathinone]				1	0.92 ± 0.51	0.00 ± 0.00	0.0 (0.0–0.0) h	0.56 ± 0.59	1.24 ± 1.56	0.82 ± 0.84	0.06 ± 0.11	higher than 1 points	2.51 ± 2.22	0.00 ± 0.00	1.39 ± 1.96	1.63 ± 2.13	1.02 ± 1.08	0.10 ± 0.24
